Here are results for 5 compounds from patent US10827753B2, “Compositions and methods for controlling nematodes” (Monsanto Technology LLC, priority 2007, dated 2020).

Marks after values point to notes of the source that are not given here.

Series [1] has as its system Meloidogyne incognita. As to the kind of experiment: Summer field evaluation of pre-plant incorporated compounds on squash. Format: in vivo. How it is done:
Test plots of 33 cm diameter holes were bored 41 cm deep into clay soil and filled with a mixture of 80% sand and 20% silt loam soil. Technical compound for each treatment was dissolved in 50 ml acetone containing 250 ul of Triton X-100 surfactant. This solution was added to 450 ml water and poured onto 95 liters of sand/soil mixture in a rotating drum mixer. While continuing to rotate the mixing drum 66 grams of chopped, galled, tomato roots was added and thoroughly distributed. The treated soil was sufficient to fill the top 15 cm of each of the 6 replicate plots, thus simulating a PPI treatment. The plots were then watered lightly and a mixture of M. incognita eggs and larvae were injected 5 cm deep at 5 points within the plot (100 k eggs/larvae in 10 ml per plot). Three-week old squash (cv. Liberator III) with 1 fully expanded true leaf was planted 4 days after soil treatment, one per plot.

For series [2], the system named is CD-1/Swiss derived albino mice. Type of series: in vivo. The following applies: 500 mg/kg oral, three female mice, observed up to 14 days. The procedure: Acute oral toxicity testing was performed in mice in accordance with test method P203.UDP, as administered by Eurofins/Product Safety Laboratories (Dayton, N.J.). CD-1/Swiss derived albino mice were obtained and group housed in suspended solid bottom caging. The mice were fed rodent chow and filtered tap water was supplied ad libitum. Following acclimation to the laboratory setting, a group of animals was fasted overnight by removing food from the cages. After the fasting period, three female mice were selected based on vitality and initial body weights. The individual compound doses were calculated from these body weights.
The test substance was prepared as a 1% (50 mg/kg) or 5% (500 mg/kg) weight to weight (w/w) mixture in a 0.5% w/w solution of carboxymethylcellulose (CMC) in distilled water. A tissue homogenizer was used to create a homogeneous mixture. A dose of 50 or 500 mg/kg was administered to three healthy mice per dose level by oral intubation using a ball-tipped gavage needle attached to a syringe. After administration, the animals were returned to their cages, and feed was replaced immediately after dosing.
Body weights were recorded prior to initiation and on Days 7 and 14 or a soon as possible after death.

In series [3] the test system is Meloidogyne incognita. As to the kind of experiment: M. incognita miniaturized greenhouse assay on cucumber seedlings (root galling). Type of series: in vivo. More on the design: key to 1 ppm gall ratings / 1 ppm gall rating: mean of 3 gall ratings: 0=0-5%, 1=6-20%, 2=21-50%, 3=51-100% root galled. The following applies: for 8 ppm gall ratings: average of triplicate gall rating, scale 0-3 (% root mass galled). The method, boiled down:
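Compound in acetone/Triton X100 stock (5 mg/mL) diluted into water with 0.015% Triton X100 and applied to sand-planted sprouted cucumber seedlings; inoculated with 500 M. incognita eggs two days after planting. Roots harvested 10–12 days later; galling scored 0–3 by % root mass galled, averaged over triplicates, plus visual root phytotoxicity rating.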

Series [4] relates to root knot nematode (RKN). As to the kind of experiment: RKN greenhouse soil assay on cucumber plants. Type of series: in vivo, Meloidogyne incognita. The following applies: 0 day treatment, test c. An excerpt:
Cucumber seeds are planted in a sandy soil mixture in two inch square plastic pots. When the cotyledons are fully opened and just as the first leaf begins to emerge, usually 7 days after planting, chemistry for the 7 day treatment is applied. One week later the chemistry for the 0 day treatment is applied. Separate plants are used for each application. The plants are generally in the 1-2 leaf stage now. At least four hours after the chemistry application the pots are inoculated with root knot nematode (RKN) eggs. Plants are rated for galling 14 days after the egg inoculation.
One milligram of chemistry per four pots is equal to one kilogram per hectare of chemical. A standard test uses four replications. For rates above 2 kg/ha, the desired amount of chemical is weighed into a 30 ml vial (example: 8 kg/ha rate=8 mg chemical in 30 ml vial). The chemical is dissolved in 2 ml of appropriate solvent, generally acetone. For rates below 2 kg/ha, 2 milligrams of chemistry is weighed into the vial and dissolved in 2 ml of the solvent. The appropriate amount of chemical concentrate is then pipetted into a separate 30 ml vial and solvent is added to bring the volume to 2 ml (example 0.5 kg/ha=0.5 ml of concentrate+1.5 ml solvent). Each dissolved concentrate is then brought to a total of 20 milliliters using 0.05% Triton X 100 surfactant solution.
Pots to be treated are moist but not saturated. To each of four pots, five milliliters of the appropriate chemical solution is pipetted to the media surface making sure to avoid contact with the base of the plant. Immediately following chemical application, using a mist nozzle, the pot surface is wetted sufficiently to saturate the pot watering in the chemistry. The chemical application is done in the morning.
Nematode eggs, either SCN or RKN, are added to distilled water to create a concentration of 1000 vermiform eggs […]. At least four hours after chemical treatment the eggs are applied to the treated pots plus non-treated check plants. A small hole about 1 cm deep is punched into the pot surface. One milliliter of the nematode egg slurry is pipetted into the hole. Immediately afterwards the hole is gently covered. Watering of the test plants is then restricted to only water as needed to prevent wilt for a period of 24 hours. After the 24 hour restricted watering, normal sub-irrigation watering is done for the duration of the test.

Series [5] relates to Heterodera glycines (SCN). As to the kind of experiment: Seed treatment test of soybean cyst nematode on soybean plants. Format: in vivo. The following applies: test a. How it is done:
For a given concentration the chemical is dissolved in 500 ul of acetone and one gram of cucumber seed (RKN test) or soybean seed (SCN test) is added (e.g., 20 mg active ingredient in 500 ul acetone plus 1 gram of seed). The seed solutions are agitated until all seeds were thoroughly covered with the chemical solution. The acetone is then allowed to evaporate by air drying the seeds. The seeds are planted in 2-inch pots containing sandy soil and then the pots are inoculated with 1000 Meloidogyne incognita (RKN) or 1000 Heterodera glycines (SCN) eggs per pot three days after planting. Plants are rated for galling 14 days after egg inoculation for RKN or 28 days after egg inoculation for SCN.

For series [6], the system named is mice. The following applies: cited from earlier work.
Series [7] concerns Meloidogyne incognita. As to the kind of experiment: Fall nematicidal field testing on squash microplots. Format: in vivo. The following applies: for RG28 = % root galls at 28 days after treatment / RG43 = % root galls at 43 days after treatment: 2 kg ai/ha drench, squash. From the text: The test site was located at 3511 Highway F in New Melle, Mo., Saint Charles county. The soil was a native prairie/pasture covering silty clay loam soil. Holes were dug using a Bobcat 763 skid loader with a 12-inch auger to a depth of 18 inches. Total volume of each hole was about 1.2 cubic feet. Six cubic yards of topsoil and 9 tons of river sand were purchased from Dardenne Farms Topsoil. Mixing to a ratio of 4 volumes sand to 1 volume soil was accomplished using a trailer-mounted 9 cubic foot concrete mixer. Holes were filled and then re-filled 5 days later after settling. The mixture was 92.5% sand, 2.5% silt, and 5% clay. Organic matter was 0.2% and pH was 6.8.
Treatments were arranged in a block design with the blocks laid out perpendicular to the primary slope and parallel to secondary slope. There are 7 inoculated controls and 5 non-inoculated controls and the distributions of disease severity appeared independent of location.
Application rates are expressed as kg of active material per hectare, and the mg per plot is based on the surface area of the bored and filled holes (0.000008559 Ha). The DC compounds were formulated immediately before application as follows: 1) the amount required to treat all six replicates was dissolved in 300 ml of acetone, 2) for each plot 50 ml of that solution was added to a graduated cylinder with 2 ml of 12.5% Triton X100 and the volume was raised to 500 ml with tap water. The resultant mix is the same as used in the standard greenhouse assays (10% acetone, 0.05%×100). The oxamyl treatments were prepared from Vydate 2 L formulated the same way. The 500 ml was placed in a watering can and the entire volume was evenly sprinkled over the surface of the plot. No runoff occurred and pooling, if any, was short lived. The final drench volume was 0.58 ml/cm^2, compared to 0.2 ml/cm^2 used in our greenhouse, however the microplots are much deeper so the drench volume applied per soil volume treated is roughly the same.
Meloidogyne incognita eggs were harvested over a two week period and stored at approximately 5° C. until needed. A stock of 5.6 million vermiform eggs was adjusted to 9000/ml in 620 ml. One day after treatment, two holes were made in each plot about 7 cm apart and equidistant from the squash plants. Five ml of egg suspension was pipetted into each hole, which was then sealed and the plot lightly watered. A total of 90,000 vermiform eggs were added to each plot.
The first root evaluation was at 28 DAT. The tops were cut off and weighed immediately in the field, and the roots were carefully dug out so as not to disturb the remaining plant.

Series [8] deals with sting (Belonolaimus longicaudatus) nematodes. As to the kind of experiment: Sting nematode bench top soil assay. Format: in vivo. The procedure: Populations of sting (Belonolaimus longicaudatus) nematodes are maintained on St. Augustine turf grass on soil in 15-cm pots. At test initiation the turf is removed from the pots and the soil containing nematode eggs, juveniles, and adults is subdivided into pots each containing a volume of 125 cm^3′ The compounds to be tested are dissolved in 3 ml of acetone using 3, 6, or 15 mg to achieve equivalent surface area application rates of 2, 4, or 10 kg/ha, respectively. The 3 ml acetone stock solution is added to 30 ml of water, and 5 ml of that solution is used to drench each of 6 replicate test pots prepared as described above. The treated pots containing nematodes are incubated in the laboratory at ambient temperature of approximately 25° C. After 3 days the soil from each pot is washed onto a modified Baermann apparatus comprised of a screen supporting a layer of filter paper on which the soil sample is placed and set in a dish of water. The samples are then incubated at 25° C. for 24 hours to allow the live nematodes to migrate through the paper and screen and into a water reservoir to be collected for counting with a light microscope. Nematodes that have been killed or immobilized by the test compounds are not able to migrate into the reservoir.

For `Clc1ccc(-c2nsc(-c3ccco3)n2)c(Cl)c1` [compound 5960], in series [1] (4 kg (kg/ha) PPI, squash), the “0-3 vigor 16 DAP” value is on record as 3.0, the “0-3 vigor 21 DAP” value came to 3.0, the “feeder root (3 = ave) 31 DAP” value was found to be 3.3 and the “gall % 31 DAP” value is reported as 24%. In series [1] (4 kg (kg/ha) PPI, squash), the “root wgt (g) 31 DAP” value is 32.6 g, the “top wgt (lbs) 31 DAP” value came to 1.58 lbs and the “total fruit (lbs)” value is 1.61 lbs. In addition, the “control of M. incognita (in words)” value in series [1] (PPI application at 4 kg/ha) is on record as “significant control”. The “mortality, signs of gross toxicity and behavioral changes” value in series [2] was “all animals survived, gained body weight, and appeared active and healthy”. In addition, the “1 ppm gall ratings” value in series [3] (Table 1B test e) is 0.33^e. Also, the “percent control (galling reduction) relative to the control blank treatment” value in series [4] (0.05 kg/ha) was “— — 75^c percent”. In series [4] (0.1 kg/ha), the “percent control (galling reduction) relative to the control blank treatment” value is given as “— — 75^c percent”. Also, the “percent control (galling reduction) relative to the control blank treatment” value in series [4] (0.25 kg/ha) is recorded as “— — 76^c percent”.
`CS/C(C)=N\OC(=O)N(C)SN(C)C(=O)O/N=C(\C)SC` [Thiodicarb]: the “percent cyst reduction relative to control blank treatment” value in series [5] (0.375 mg al/gram seed) is 6^a percent; in series [5] (1.5 mg al/gram seed), −23^a percent.
Consider `CNC(=O)O/N=C/C(C)(C)SC` [aldicarb], for which the “oral LD50 in mice” value in series [6] is 0.3 mg/kg.
Take `c1ccc(-c2cnc(-c3cccs3)o2)cc1` [compound 4417]: the “RG28 = % root galls at 28 days after treatment” value in series [7] is reported as 25.5%. Besides, the “RG43 = % root galls at 43 days after treatment” value in series [7] is reported as 38.2%. In addition, the “root weights (in words)” value in series [7] (2 kg/ha, 28 DAT) is on record as “not affected”. The “top weights (in words)” value in series [7] (2 kg/ha, 28 DAT) is given as “reduction in top weights”. Also, the “Leaf diameter of the first true leaves” value in series [7] (2 kg/ha, five days after treatment (5 DAT)) is given as “slight reduction”. The “phytotoxicity on squash seedlings” value in series [7] (2 kg/ha, two days after treatment) is “slight phytotoxicity”. In series [2], the “mortality, signs of gross toxicity and behavioral changes” value is “One animal died within four days”. Besides, the “8 ppm gall ratings” value in series [3] came out at 0.33. Also, the “Number of nematodes recovered from treated soil after 3 days incubation with the compound” value in series [8] (2 kg/ha) stood at 24; in series [8] (4 kg/ha) it was 13; in series [8] (10 kg/ha), 7.
Consider `Clc1ccc(-c2nnc(-c3cccs3)o2)cc1` [compound 4559], for which, in series [7], the “RG28 = % root galls at 28 days after treatment” value amounted to 34.2%. The “RG43 = % root galls at 43 days after treatment” value in series [7] was determined as 24.0%. In series [7] (2 kg/ha, 43 day time point), the “control of root galling compared with oxamyl at an equivalent rate” value is listed as “significantly better than oxamyl”. For the same compound, in series [3] (Table 1B test a), the “1 ppm gall ratings” value is reported as 1^a (1=6-20%). Further, the “8 ppm gall ratings” value in series [3] is recorded as 0 (0=0-5%). The “Number of nematodes recovered from treated soil after 3 days incubation with the compound” value in series [8] (2 kg/ha) is 39; in series [8] (4 kg/ha), 47; in series [8] (10 kg/ha) it was 33.
